Test results reported in PubChem BioAssay (NCI).
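Compound exposure: 48 hours, 5 concentrations, 96-well plates. GI50 marks 50% less growth. TGI: total growth inhibition.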

Tests used:
Assay in all cases: DTP human tumour cell line panel, 48 h
786-0 renal = test system: 786-0 renal
A498 renal = test system: A498 renal
A549 NSCLC = test system: A549 NSCLC
ACHN renal = test system: ACHN renal
BT-549 breast = test system: BT-549 breast
CAKI-1 renal = test system: CAKI-1 renal
CCRF-CEM leukemia = test system: CCRF-CEM leukemia
COLO 205 colon = test system: COLO 205 colon
DU-145 prostate = test system: DU-145 prostate
EKVX NSCLC = test system: EKVX NSCLC
HCC-2998 colon = test system: HCC-2998 colon
HCT-116 colon = test system: HCT-116 colon
HCT-15 colon = test system: HCT-15 colon
HOP-62 NSCLC = test system: HOP-62 NSCLC
HOP-92 NSCLC = test system: HOP-92 NSCLC
HS 578T breast = test system: HS 578T breast
HT29 colon = test system: HT29 colon
IGROV1 ovarian = test system: IGROV1 ovarian
K-562 leukemia = test system: K-562 leukemia
KM12 colon = test system: KM12 colon
LOX IMVI melanoma = test system: LOX IMVI melanoma
M14 melanoma = test system: M14 melanoma
MALME-3M melanoma = test system: MALME-3M melanoma
MCF7 breast = test system: MCF7 breast
MDA-MB-231 breast = test system: MDA-MB-231 breast
MDA-MB-435 = test system: MDA-MB-435
MDA-N = test system: MDA-N
MOLT-4 leukemia = test system: MOLT-4 leukemia
NCI-H226 lung = test system: NCI-H226 lung
NCI-H23 lung = test system: NCI-H23 lung
NCI-H460 lung = test system: NCI-H460 lung
NCI-H522 lung = test system: NCI-H522 lung
NCI/ADR-RES ovarian = test system: NCI/ADR-RES ovarian
OVCAR-3 ovarian = test system: OVCAR-3 ovarian
OVCAR-4 ovarian = test system: OVCAR-4 ovarian
OVCAR-5 ovarian = test system: OVCAR-5 ovarian
OVCAR-8 ovarian = test system: OVCAR-8 ovarian
PC-3 prostate = test system: PC-3 prostate
RPMI-8226 leukemia = test system: RPMI-8226 leukemia
RXF 393 renal = test system: RXF 393 renal
SF-268 CNS = test system: SF-268 CNS
SF-295 CNS = test system: SF-295 CNS
SF-539 CNS = test system: SF-539 CNS
SK-MEL-2 melanoma = test system: SK-MEL-2 melanoma
SK-MEL-28 melanoma = test system: SK-MEL-28 melanoma
SK-MEL-5 melanoma = test system: SK-MEL-5 melanoma
SN12C renal = test system: SN12C renal
SNB-19 CNS = test system: SNB-19 CNS
SNB-75 CNS = test system: SNB-75 CNS
SR leukemia = test system: SR leukemia
SW-620 colon = test system: SW-620 colon
TK-10 renal = test system: TK-10 renal
U251 CNS = test system: U251 CNS
UACC-257 melanoma = test system: UACC-257 melanoma
UACC-62 melanoma = test system: UACC-62 melanoma
UO-31 renal = test system: UO-31 renal
HL-60(TB) leukemia = test system: HL-60(TB) leukemia
SK-OV-3 ovarian = test system: SK-OV-3 ovarian
T-47D breast = test system: T-47D breast

CCN1C(=O)c2cc(OC)c(OC)cc2C(=O)C12OC(=O)c1cc3c(cc12)OCO3 (configuration not stated)
TGI (786-0 renal): 53.7 µM
TGI (A498 renal): > 100 µM
TGI (A549 NSCLC): > 100 µM
TGI (ACHN renal): > 100 µM
TGI (BT-549 breast): > 100 µM
TGI (CAKI-1 renal): > 100 µM
TGI (CCRF-CEM leukemia): > 100 µM
TGI (COLO 205 colon): > 100 µM
TGI (DU-145 prostate): 88.4 µM
TGI (EKVX NSCLC): > 100 µM
TGI (HCC-2998 colon): > 100 µM
TGI (HCT-116 colon): > 100 µM
TGI (HCT-15 colon): > 100 µM
TGI (HOP-62 NSCLC): > 100 µM
TGI (HOP-92 NSCLC): > 100 µM
TGI (HS 578T breast): > 100 µM
TGI (HT29 colon): > 100 µM
TGI (IGROV1 ovarian): > 100 µM
TGI (K-562 leukemia): > 100 µM
TGI (KM12 colon): > 100 µM
TGI (LOX IMVI melanoma): > 100 µM
TGI (M14 melanoma): > 100 µM
TGI (MALME-3M melanoma): > 100 µM
TGI (MCF7 breast): > 100 µM
TGI (MDA-MB-231 breast): > 100 µM
TGI (MDA-MB-435): > 100 µM
TGI (MDA-N): > 100 µM
TGI (MOLT-4 leukemia): > 100 µM
TGI (NCI-H226 lung): > 100 µM
TGI (NCI-H23 lung): > 100 µM
TGI (NCI-H460 lung): > 100 µM
TGI (NCI-H522 lung): > 100 µM
TGI (NCI/ADR-RES ovarian): > 100 µM
TGI (OVCAR-3 ovarian): > 100 µM
TGI (OVCAR-4 ovarian): > 100 µM
TGI (OVCAR-5 ovarian): > 100 µM
TGI (OVCAR-8 ovarian): > 100 µM
TGI (PC-3 prostate): > 100 µM
TGI (RPMI-8226 leukemia): > 100 µM
TGI (RXF 393 renal): 72.9 µM
TGI (SF-268 CNS): > 100 µM
TGI (SF-295 CNS): > 100 µM
TGI (SF-539 CNS): > 100 µM
TGI (SK-MEL-2 melanoma): 49.9 µM
TGI (SK-MEL-28 melanoma): > 100 µM
TGI (SK-MEL-5 melanoma): > 100 µM
TGI (SN12C renal): > 100 µM
TGI (SNB-19 CNS): > 100 µM
TGI (SNB-75 CNS): 48.5 µM
TGI (SR leukemia): > 100 µM
TGI (SW-620 colon): > 100 µM
TGI (TK-10 renal): > 100 µM
TGI (U251 CNS): > 100 µM
TGI (UACC-257 melanoma): > 100 µM
TGI (UACC-62 melanoma): > 100 µM
TGI (UO-31 renal): > 100 µM

O=C(OCc1ccc2ccccc2n1)c1cn(C2CC2)c2cc(N3CCN(Cc4ccc5ccccc5n4)CC3)c(F)cc2c1=O
GI50 (786-0 renal): > 49.2 µM
TGI (786-0 renal): > 68.4 µM
GI50 (A498 renal): 25.2 µM
TGI (A498 renal): > 82.1 µM
GI50 (A549 NSCLC): 98.2 µM
TGI (A549 NSCLC): > 100 µM
GI50 (ACHN renal): > 72.4 µM
TGI (ACHN renal): > 100 µM
GI50 (BT-549 breast): 23.1 µM
TGI (BT-549 breast): 68 µM
GI50 (CAKI-1 renal): 55.7 µM
TGI (CAKI-1 renal): > 100 µM
GI50 (CCRF-CEM leukemia): > 100 µM
TGI (CCRF-CEM leukemia): > 100 µM
GI50 (COLO 205 colon): 49.6 µM
TGI (COLO 205 colon): > 100 µM
GI50 (DU-145 prostate): 6.09 µM
TGI (DU-145 prostate): > 100 µM
GI50 (EKVX NSCLC): 29.6 µM
TGI (EKVX NSCLC): > 100 µM
GI50 (HCC-2998 colon): 34 µM
TGI (HCC-2998 colon): > 100 µM
GI50 (HCT-116 colon): > 53.2 µM
TGI (HCT-116 colon): > 95.3 µM
GI50 (HCT-15 colon): 62.6 µM
TGI (HCT-15 colon): > 100 µM
GI50 (HL-60(TB) leukemia): > 100 µM
TGI (HL-60(TB) leukemia): > 100 µM
GI50 (HOP-62 NSCLC): > 53.8 µM
TGI (HOP-62 NSCLC): > 95.2 µM
GI50 (HOP-92 NSCLC): > 100 µM
TGI (HOP-92 NSCLC): > 100 µM
GI50 (HS 578T breast): 40.6 µM
TGI (HS 578T breast): > 100 µM
GI50 (HT29 colon): 58.2 µM
TGI (HT29 colon): > 100 µM
GI50 (IGROV1 ovarian): > 93.2 µM
TGI (IGROV1 ovarian): > 100 µM
GI50 (K-562 leukemia): > 53.5 µM
TGI (K-562 leukemia): > 100 µM
GI50 (KM12 colon): 41.6 µM
TGI (KM12 colon): > 100 µM
GI50 (LOX IMVI melanoma): 29 µM
TGI (LOX IMVI melanoma): > 89.5 µM
GI50 (M14 melanoma): > 56.3 µM
TGI (M14 melanoma): 99.8 µM
GI50 (MALME-3M melanoma): 33.2 µM
TGI (MALME-3M melanoma): > 84.2 µM
GI50 (MCF7 breast): 35 µM
TGI (MCF7 breast): > 92.7 µM
GI50 (MDA-MB-231 breast): > 46.9 µM
TGI (MDA-MB-231 breast): > 84 µM
GI50 (MDA-MB-435): 39.4 µM
TGI (MDA-MB-435): > 100 µM
GI50 (MOLT-4 leukemia): > 100 µM
TGI (MOLT-4 leukemia): > 100 µM
GI50 (NCI-H226 lung): 22.1 µM
TGI (NCI-H226 lung): 91.6 µM
GI50 (NCI-H23 lung): 42.3 µM
TGI (NCI-H23 lung): > 88.6 µM
GI50 (NCI-H460 lung): 39.3 µM
TGI (NCI-H460 lung): > 100 µM
GI50 (NCI-H522 lung): > 94.3 µM
TGI (NCI-H522 lung): > 100 µM
GI50 (NCI/ADR-RES ovarian): 61.5 µM
TGI (NCI/ADR-RES ovarian): > 100 µM
GI50 (OVCAR-3 ovarian): 44.9 µM
TGI (OVCAR-3 ovarian): > 100 µM
GI50 (OVCAR-4 ovarian): > 100 µM
TGI (OVCAR-4 ovarian): > 100 µM
GI50 (OVCAR-5 ovarian): > 81.5 µM
TGI (OVCAR-5 ovarian): > 100 µM
GI50 (OVCAR-8 ovarian): 51.5 µM
TGI (OVCAR-8 ovarian): > 100 µM
GI50 (PC-3 prostate): > 44.6 µM
TGI (PC-3 prostate): > 80.2 µM
GI50 (RPMI-8226 leukemia): > 36.3 µM
TGI (RPMI-8226 leukemia): > 64.2 µM
GI50 (RXF 393 renal): 63.6 µM
TGI (RXF 393 renal): > 100 µM
GI50 (SF-268 CNS): > 62.5 µM
TGI (SF-268 CNS): > 100 µM
GI50 (SF-295 CNS): 35.2 µM
TGI (SF-295 CNS): > 100 µM
GI50 (SF-539 CNS): 21.2 µM
TGI (SF-539 CNS): 58 µM
GI50 (SK-MEL-2 melanoma): > 100 µM
TGI (SK-MEL-2 melanoma): > 100 µM
GI50 (SK-MEL-28 melanoma): 35.4 µM
TGI (SK-MEL-28 melanoma): > 100 µM
GI50 (SK-MEL-5 melanoma): 20.1 µM
TGI (SK-MEL-5 melanoma): 62.2 µM
GI50 (SK-OV-3 ovarian): > 80.7 µM
TGI (SK-OV-3 ovarian): > 100 µM
GI50 (SN12C renal): > 100 µM
TGI (SN12C renal): > 100 µM
GI50 (SNB-19 CNS): > 81.6 µM
TGI (SNB-19 CNS): > 100 µM
GI50 (SNB-75 CNS): 32 µM
TGI (SNB-75 CNS): > 66.6 µM
GI50 (SR leukemia): > 100 µM
TGI (SR leukemia): > 100 µM
GI50 (SW-620 colon): > 89.5 µM
TGI (SW-620 colon): > 100 µM
GI50 (T-47D breast): 12.9 µM
TGI (T-47D breast): > 100 µM
GI50 (TK-10 renal): 31.9 µM
TGI (TK-10 renal): > 74.6 µM
GI50 (U251 CNS): 56.7 µM
TGI (U251 CNS): > 100 µM
GI50 (UACC-257 melanoma): > 94.2 µM
TGI (UACC-257 melanoma): > 100 µM
GI50 (UACC-62 melanoma): 46.1 µM
TGI (UACC-62 melanoma): > 100 µM
GI50 (UO-31 renal): > 100 µM
TGI (UO-31 renal): > 100 µM
